Consider five molecules from PMC5920098, “Identification of the allosteric P2X7 receptor antagonist [^11C]SMW139 as a PET tracer of microglial activation” (Scientific Reports, 2018).

“Also recorded” adds a separate entry of the source.

Series [1] concerns the target T1, human P2X7 receptor (hP2X7R) (Homo sapiens, UniProt Q99572).
T1 sequence (Q99572 1-595): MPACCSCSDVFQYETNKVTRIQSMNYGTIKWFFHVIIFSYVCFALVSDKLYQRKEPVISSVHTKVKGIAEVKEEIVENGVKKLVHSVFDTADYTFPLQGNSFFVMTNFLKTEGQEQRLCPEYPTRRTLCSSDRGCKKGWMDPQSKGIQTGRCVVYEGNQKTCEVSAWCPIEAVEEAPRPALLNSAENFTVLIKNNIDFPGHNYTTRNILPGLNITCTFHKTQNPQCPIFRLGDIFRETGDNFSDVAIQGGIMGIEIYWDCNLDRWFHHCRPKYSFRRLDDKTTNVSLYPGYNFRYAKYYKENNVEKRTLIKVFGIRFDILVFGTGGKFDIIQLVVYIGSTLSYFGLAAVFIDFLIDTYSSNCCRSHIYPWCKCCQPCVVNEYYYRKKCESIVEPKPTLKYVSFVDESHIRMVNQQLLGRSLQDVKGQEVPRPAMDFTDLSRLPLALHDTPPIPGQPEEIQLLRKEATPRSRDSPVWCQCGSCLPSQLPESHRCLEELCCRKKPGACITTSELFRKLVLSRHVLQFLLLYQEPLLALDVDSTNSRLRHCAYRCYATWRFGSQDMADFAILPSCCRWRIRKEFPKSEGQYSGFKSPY
Kind of series: In vitro autoradiography on rat brain cryosections locally overexpressing hP2X7R. Conditions: co-incubation with blocker 10 µM, tracer 28 nM, n = 2.
Method: Snap frozen brain tissue was cut on a cryostat into 20 μm sections.
Stereotactic injection of viral vector
Female Wistar rats (n=7) were anaesthetised by intraperitoneal (i.p.)
injection of ketamine (75 mg·kg-1); Ketalar, Pfizer, Brussels, Belgium) and medetomidin (1 mg·kg-1;
Domitor, Pfizer) and positioned in a stereotactic head frame (Stoelting, Wood Dale, IL, USA). Right and
left striatum were injected with 4 µL of the hP2X7R vector (rAAV_3flag-hP2X7R) and of the control
vector (rAAV_3flag-eGFP), respectively, at a rate of 0.25 µL·min-1, using a 30-gauge needle connected
to a 10 µL Hamilton syringe. Coordinates used for striatal injection of the hP2X7R vector were:
anteroposterior 0 cm, lateral -0.28 cm and dorsoventral -0.64 cm relative to bregma. Coordinates
used for striatal injection of the eGFP vector were: anteroposterior 0 cm, lateral +0.28 cm and
dorsoventral -0.64 cm relative to bregma. After injection, the needle was kept in place for another 5
minutes before removing it slowly. To reverse the anaesthesia, the rats were injected intraperitoneally
with 0.5 mg·kg-1 atipamezol (Antisedan, Orion Pharma, Newburry, Berkshire, UK).
Rats were sacrificed for in
vitro autoradiography at 3 (n=2) and 12 (n=5) weeks after vector injection.
Snap frozen brains of female Wistar rats (rAAV_3flag-hP2X7R in right striatum; rAAV_3flag-eGFP in left
striatum; sacrificed 3 weeks (n = 2) or 12 weeks (n = 5) after vector injection) were cut on a Leica
CM3050 S cryostat (Leica Biosystems, Nussloch, Germany) at -19 °C in transversal sections of 20 µm,
thaw-mounted on SuperFrostTM Plus (Thermo Fisher Scientific, Waltham, MA, USA) object glasses,
dried overnight on silica at 4 °C and then stored at -20 °C until use.
Upon use, sections were thawed to room temperature for an hour
before washing the sections in 5 mM Tris-HCl buffer (pH 7.4) at room temperature (3x 5 min). Sections
were dried in a cold stream of air before incubation (30 min) with 5 mM Tris-HCl buffer (pH 7.4)
concentration. After incubation, sections were washed (3x 1.5 min) in ice-cold 5 mM Tris-HCl buffer
(pH 7.4) followed by a dip in ice-cold demineralised water. Sections were dried in a stream of air and
then exposed to a storage phosphor screen (BAS-IP SR 2040 E, GE Healthcare Europe GmbH,
Eindhoven, the Netherlands) and the screen was read out on a Typhoon FLA 7000 phosphor imager
(GE Healthcare Europe GmbH, Eindhoven, the Netherlands).
quantified using ImageQuantTL Analysis Toolbox (version 8.1, GE Healthcare). In case of the rat brain
sections, regions of interest (ROIs) were defined around the striatum. […] Results are expressed as mean intensity, or as
percentage of tracer binding, relative to total tracer binding in the contralateral striatum. Experiments
with rAAV_3flag-hP2X7R injected rat brains were performed as a duplicate of quadruplicates.
Statistical analysis of quantitative autoradiography data (unpaired t test, two-tailed) was performed

Series [2] can be described thus: Extended single microdose toxicity study in Wistar rats. In kind it is in vivo. The method, then:
A single microdose toxicity study for P2X7R antagonist SMW139 was performed according to EMEA guideline EMA/CPMP/ICH/286/1995 (December 2009) in healthy Wistar rats (male and female) at a dose of 0.12 mg·kg^−1. Rats were administered SMW139 or vehicle and parameters assessed post-dose were clinical signs and mortality, changes in body weight, food consumption, terminal haematology, coagulation and clinical chemistry parameters, gross pathology and organ weights. Further details are described in the Supplementary Information. […]
Extended single microdose toxicity study
A single microdose toxicity study according to EMEA guideline EMA/CPMP/ICH/286/1995 (December 2009) was performed in healthy Wistar rats at a 1000 times higher dose than the maximal dose […]
minimum specific activity of 18.5 GBq·µmol-1). Animals were allowed to acclimatise for 10 days, group-housed and in an enriched environment with food and water available ad libitum, and with a 12-hour light-dark cycle in a temperature controlled room. Post-dosing, animals were single-housed, but with the ability to communicate. SMW139 was formulated in 6.7% EtOH in acetate/citrate buffer (citric acid monohydrate (8 mg·mL-1), sodium citrate dehydrate (16 mg·mL-1) and sodium acetate trihydrate (7 mg ·mL-1); pH 5.2) with 2.5% Tween-80. Male and female Wistar rats (244-355 g; Charles River, Tranent, Edinburgh, United Kingdom) were injected intravenously via the tail vein under light isoflurane anaesthetics with formulated SMW139 (1 mL·kg-1, corresponding to a single dose of 0.12 mg·kg-1; female n = 10; male n = 10), or vehicle only (1 mL·kg-1; female n = 10; male n = 10) and animals were sacrificed 24 hours (SMW139; female n = 5; male n = 5; vehicle; female n = 5; male n = 5) or 14 days (SMW139; female n = 5; male n = 5; vehicle; female n = 5; male n = 5) post-dose by exsanguination

Series [3] in a line: LogDoct,7.4 by shake-flask method (1-octanol / 0.2 M phosphate buffer pH 7.4). In kind it is physicochemical. Conditions: mean ± SD, read-out: LogDoct,7.4 (n = 3). The procedure:
The LogDoct,7.4 of analogues [^11C]1–3 and [^11C]SMW139 ([^11C]4) was determined using the shake-flask method (partitioning between 1-octanol and 0.2 M phosphate buffer (pH 7.4)). Determined LogDoct,7.4 values (Table 1) show the same trend as LogD values reported by Wilkinson et al.[10].
LogDoct,7.4 of [^11C]1–3 and [^11C]SMW139 was determined by the shake-flask method as described in the Supplementary Information.
Analytical HPLC chromatogram of [11C]SMW139 formulation (Platinum C18, MeCN/H2O/TFA 45:55:0.1, 1 […]
Determination of LogDoct,7.4
The distribution of radiolabelled compound between 1-octanol and 0.2 M phosphate buffer (pH = 7.4) was measured at room temperature. Briefly, 1 mL of a 20 MBq·mL-1 solution of radiolabelled compound in 0.2 M phosphate buffer (pH = 7.4) was mixed with 1 mL of 1-octanol for 1 min using a vortex mixer. After a settling period of 30 min, three samples of 100 μL were taken from both layers.
All samples were counted for radioactivity in a Wallac Universal Gammacounter 1282 (PerkinElmer, Waltham, MA, USA). The LogDoct,7.4 value was calculated according to LogDoct,7.4 = 10Log(Aoct/Abuffer), where Aoct and Abuffer represent average radioactivity counts of the three 1-octanol and the three […]
(1 picture or pasted object on this page, not shown here)

The nature of series [4]: Ex vivo metabolite analysis (plasma and brain) in healthy male Wistar rats. More on the design: species or system rat. The method, then: In vivo stability of analogues [^11C]1–3 and [^11C]SMW139 was assessed in healthy male Wistar rats at 15 and 45 minutes after injection of 30–40 MBq of formulated tracer. […] Results obtained in plasma correspond with previously reported stability results in rat liver microsomes. A higher level of intact tracer was found in brain (Table 3) for [^11C]1 and [^11C]SMW139 compared with [^11C]2 and [^11C]3. Despite optimisation of the extraction method, the percentage of total radioactivity that could be extracted from brain homogenates was not optimal for all four compounds (59 ± 6% for [^11C]1; 58 ± 7% for [^11C]2; 61 ± 4% for [^11C]3; 62 ± 3% for [^11C]SMW139). Therefore, based on its highest stability in plasma in vivo, [^11C]SMW139 was selected for further in vivo studies. As imaging studies were performed in female rats, plasma metabolites were also determined in two female rats, and no differences were found between plasma metabolism of [^11C]SMW139 in male and female rats (Table S1; Supplementary Information).
For each of the carbon-11 labelled benzamide analogues [^11C]1–3 and [^11C]SMW139, a biodistribution study and metabolite analysis in healthy male Wistar rats was performed, as described in detail in the Supplementary Information. Briefly, tracer distribution in blood, brain, and peripheral organs was measured at 5, 15, 30 and 45 min after intravenous injection of 13–23 MBq of formulated tracer. Metabolite analysis was performed at 15 and 45 min after intravenous injection of 30–40 MBq of formulated tracer in both blood plasma and brain. […]
Ex vivo metabolite analysis
Healthy male and female Wistar rats (254-440 g) were injected with 30-40 MBq (at start of experiment) of formulated tracer in the tail vein under isoflurane anaesthesia. Rats were sacrificed at 15 and 45 min (n = 3 per time point). Blood samples were obtained and the brain was excised. Blood samples were collected in heparin tubes (BD Vacutainer NH 119 I.U., 7 mL, BD Vacutainer Systems, Plymouth, UK) and centrifuged at 4,000 rpm for 5 min at 4 °C (Hettich Universal 32, Andreas Hettich GmbH & Co.KG, Tuttlingen, Germany). Plasma supernatant was separated from blood cells and loaded onto a tC18 Sep-Pak (Waters, Milford, MA, USA), followed by washing with 3 mL of water to obtain the polar fraction. The non-polar fraction was then eluted with 2 mL of MeOH and 1 mL of water and further analysed by HPLC. The brain was put in a falcon tube containing 4 mL MeCN/H2O (50:50 v/v) and homogenised with a disperser (IKA T18 B Ultra-Turrax, IKA®-Werke GmbH & Co.KG, Staufen, Germany) before centrifugation (5 min, 4,000 rpm, 20 °C, Hettich Universal 32). Supernatant was separated from brain precipitate and analysed by HPLC. Analytical HPLC was performed with Dionex (Sunnyvale, CA, USA) UltiMate 3000 HPLC equipment with Chromeleon software (version 6.8) on a Gemini C18 5-µm (10 x 250 mm) column (Phenomenex, Torrance, CA, USA) with gradient and a mixture of MeCN (A) and 0.1% DIPA in water (B) as eluent according to the following scheme: 0 min, […]
0.25 mL·min-1. All separate fractions were counted for radioactivity in a Wizard Gammacounter 1470 or 2480 (Wallac/PerkinElmer, Waltham, MA, USA).

The mark [5] stands for this setting: rat plasma, 15 min p.i., male Wistar rats.
The mark [6] stands for this setting: rat plasma, 45 min p.i., male Wistar rats.

With `COc1ccc(CC(=O)NC(NC(=NC#N)Nc2cccc3ncccc23)C(C)(C)C)cc1OC` (stereo not shown) [A-740003, N-(1-{[(Cyanoimino)(5-quinolinylamino)methyl]amino}-2,2-dimethylpropyl)-2-(3,4-dimethoxyphenyl)acetamide, reference compound], the “Block of [^11C]SMW139 binding in rAAV_3flag-hP2X7R striatum” value in series [1] amounted to 79 ± 10%.
On to `COc1ccc(Cl)c(C(=O)NCC23CC4(F)CC(F)(CC(F)(C4)C2)C3)c1` [SMW139], for which, in series [2] (single i.v. dose 0.12 mg·kg^−1), the Food consumption result was “stable in all groups”; the “Haematology, coagulation and clinical chemistry parameters” value is listed as “No treatment-related changes”; the Necropsy findings result is “no abnormalities suggesting a toxic effect”; the Organ weights entry is reported as “No significant differences in organ weights”. In addition, in series [2] (single i.v. dose 0.12 mg·kg^−1, male and female rats), the “Toxic / clinical effects” value was “no abnormalities, complications or toxic clinical effects were observed; also recorded: no adverse or toxic effects; also recorded: no toxic effects”. Also, the “Body weight curves vs vehicle” value in series [2] (single i.v. dose 0.12 mg·kg^−1, p ≥ 0.05) was “did not differ between vehicle injected animals and animals injected with SMW139”.
Regarding `[11CH3]Oc1ccc(Cl)c(C(=O)NCC23CC4CC(CC(C4)C2)C3)c1` [[^11C]1], the logD in series [3] amounted to 2.88 ± 0.14. Besides, the “Intact tracer (%)” value in series [4] (rat brain, 15 min p.i.) is listed as 82 ± 1%; in series [4] (rat brain, 45 min p.i.), 76 ± 2%; in series [4] (setting [5]), 37 ± 5%; in series [4] (setting [6]), 25 ± 1%.
For `[11CH3]Oc1ccc(Cl)c(C(=O)NCC23CC4CC(CC(F)(C4)C2)C3)c1` [[^11C]2], in that order: 2.93 ± 0.02, 67 ± 5%, 32 ± 4%, 37 ± 7% and 15 ± 2%.
As to `[11CH3]Oc1ccc(Cl)c(C(=O)NCC23CC4CC(F)(CC(F)(C4)C2)C3)c1` [[^11C]3], the logD in series [3] worked out at 2.71 ± 0.01. Moreover, the “Intact tracer (%)” value in series [4] (rat brain, 15 min p.i.) amounted to 62 ± 2%; in series [4] (rat brain, 45 min p.i.), 32 ± 2%; in series [4] (setting [5]), 35 ± 1%; in series [4] (setting [6]), 16 ± 1%.
